What was measured:
Assay type in all cases: cell-based, human
DDR1 mRNA = DDR1 mRNA expression in PBMC by Northern blotting; conditions: 8 hours, TNF-α 5 ng/ml, IL-1β 10 ng/ml, IFN-γ 50 U/ml, GM-CSF 10 ng/ml, LPS 1 μg/ml, PHA 5 μg/ml
Experimental: PMN and PBMC were maintained at a density of 5×10^6 cells/ml in the complete medium in six-well tissue culture cluster (Coster, Cambridge, Mass.; 3 ml/well). Total RNA was extracted from each culture by using TRIZOL® Reagent. PolyA mRNA was purified on Oligotex columns (Qiagen, Valencia, Calif.). Northern blot analysis was performed as described (Yoshimura, J. Immunol. 150:5025, 1993), except that ULTRAhyb (Ambion) was used. A human DDR1 cDNA (757-bp) was obtained by PCR from a U-105 human glioblastoma cell line cDNA library and was ligated into the EcoRI/HindIII site of the pBluescript (Stratagene, La Jolla, Calif.). The sense primer was 5′-[…]-3′ (SEQ ID NO: 2; corresponding to residues between 68 and 87 in the nucleotide sequence of the trkE cDNA, GenBank accession number X74979) and the antisense primer was 5′-[…]-3′ (SEQ ID NO: 3; corresponding to residues between 805 and 824 in the nucleotide sequence of the trkE cDNA).
Freshly isolated PBMC expressed only a low level of DDR1 mRNA. The expression level was increased about eightfold when the cells were incubated in either RPMI 1640 or RPMI 1640 containing 10% FCS.

DDR1 = assay: Cell-surface DDR1 expression on PMN by flow cytometry; conditions: 24 hours
Experimental: PMN were incubated in presence of IFN-γ or GM-CSF for 24 hours and the expression of cell-surface DDR1 was measured by flow cytometry using an antibody raised against the extracellular domain of the receptor. One hundred thousand cells were suspended in 50 μl of cold PBS containing 0.1% NaN3, […] BSA and 200 μg/ml human IgG in a Falcon 2052, tube, and incubated for 10 minutes on ice. One μg of anti-DDR1 rabbit polyclonal antibody raised aginst the N-terminus of DDR1 (Transgenic, Inc., Kumamoto, Japan), or control mouse IgG was added to each tube and the cells were incubated for another 15 minutes on ice. The cells were washed with PBS, and then incubated with 1 μg of FITC-conjugated goat anti-mouse IgG for 15 minutes on ice. At the end of incubation, PI was added to each tube (100 μM). The cells were washed by PBS, and subsequently analyzed by using a FACS scan (Becton Dickinson). Dead cells, determined by the incorporation of PI, were gated out. Results were processed by using the Cellquest software (Becton Dickinson).

DDR1 protein = DDR1 protein expression in leukocytes by immunoprecipitation and Western blotting
Experimental: For Western blot analysis, cell lysates were prepared from freshly isolated PBMC, PBMC incubated overnight in RPMI 1640 containing 10% FCS, and MCF-7 cells. Cells were lysed on ice for 20 minutes in a buffer containing 50 mM Hepes, 150 mM NaCl, 1% Triton X-100, 10% glycerol, 10 mM NaF, 1 mM ethylenediamine tetraacetic acid, […], 1 mg/ml leupeptin, 1 mM phenylmethylsulfonyl fluoride, 1 mg/ml aprotinin, and 1 mg/ml pepstatin A. The lysates were spun, and the supernatants were collected. The samples were incubated with approximately 20 μl packed volume of PGS for 1 hour at 4° C. After centrifugation, supernatants were collected, mixed with 1 μg/ml normal rabbit IgG or polyclonal anti-human DDR1 IgG, and incubated for 1 hour at 4° C. PGS (20 μl) was then added and incubated for another 1 hour. IgG-coupled PGS was washed with the buffer containing 50 mM Hepes, 150 mM NaCl, 0.1% Triton X-100, 10% glycerol buffer three times, and 20 μl double-strength sample buffer (20% glycerol, 6% sodium dodecylsulfate (SDS), 10% 2-mercaptoethanol) was added. The samples were boiled for 10, minutes. Eluted proteins were analyzed on 7.5% polyacrylamide gels by SDS polyacrylamide gel electrophoresis (SDS-PAGE) and transferred electrophoretically to nitrocellulose membranes (Amersham, Arlington Heights, Ill.) at 200 mA for 2 hours by a semi-dry system. The membranes were incubated with polyclonal anti-human DDR1 or anti-phosphotyrosine IgG, followed by sheep anti-mouse IgG coupled with horseradish peroxidase (Amersham). Peroxidase activity was visualized by the Enhanced Chemiluminescence Detection System (Amersham).
There was no detectable DDR1 protein in freshly isolated PBMC. DDR1 protein was detected clearly after overnight incubation in RPMI 1640 containing 10% FCS. In order to study the kinetics of DDR1 protein expression, PBMC were incubated with or withour addition of TNF-α (5 ng/ml), or GM-CSF (10 ng/ml) for 36 hours and cell lysates were prepared. Cell lysates were subjected to immunoprecipitation with anti-DDR1 IgG or control IgG. […]

THP-1 cells = assay: Cytokine and chemokine release from PMA-treated THP-1 cells by ELISA; conditions: DDR1b-overexpressing THP-1 cells, PMA, collagen-coated plates, 48 hours
Experimental: The production of DDR1a- or 1b-overexpressing THP-1 cells was previously described (Kamohara et al., FASEB J. 15:2724, 2001). Briefly, the human monocytic leukemic cell line, THP-1, was transduced with control retrovirus containing the vector only (mock-transduced) or retrovirus expressing DDR1a or DDR1b. THP-1 cells transduced by each virus were selected with G418, and cloned by limiting dilution. The cloned THP-1 cells were maintained in RPMI 1640 medium supplemented with 100 μg/ml gentamycin and 10% FCS (complete medium). Cells were plated at 1×10^6/ml and treated with PMA (10 nM) for variable times on uncoated or collagen-coated tissue culture plates for quantification of cytokine or chemokine release.
In addition, the concentration of MCP-1 in the culture supernatant of each cell line was measured by ELISA. The concentration of MCP-1 was measured in the Lymphokine Testing Laboratory, Clinical Services Program, SAIC-Frederick (Frederick, Md.) by using an enzyme-linked immunosorbent assay (ELISA) kit (R&D Systems, Minneapolis, Minn.) specific for the chemokine.
In addition, the concentrations of IL-1β, IL-8, and MIP-1α in the culture supernatants of each cell line were quantified by ELISA (FIG. 6). The concentration of IL-1β, IL-8, and MIP-1α were measured in the Lymphokine Testing Laboratory, Clinical Services Program, SAIC-Frederick (Frederick, Md.) by using enzyme-linked immunosorbent assay (ELISA) kits (R&D Systems, Minneapolis, Minn.) specific for each human cytokine and chemokine. […]

NF-κB [1] = assay: NF-κB luciferase reporter assay in THP-1 cells; conditions: DDR1b-overexpressing cells, 12 hours
Experimental: For the results shown in FIG. 7A, mock-transduced or DDR1b-overexpressing THP-1 cells were transfected with 10 μg of the NF-κB-Luc plasmid and 5 μg of pSV-β-galactosidese plasmid DNA (Promega, Madison, Wis.) per 100-mm tissue culture plate using Effectene Transfection Reagent (Qiagen, Valencia, Calif.), according to the manufacture's protocol. After a 12-hour incubation, cells were rinsed with phosphate buffered saline (PBS) and then incubated with 10 nM PMA on collagen-coated plates in the presence of absence of SB203580, PD98059, CAPE or dimethlysulfoxide (DMSO) for another 12 hours. Cells were collected and lysed using the Reporter Lysis Buffer (Promega, Madison, Wis.), and luciferase activity and β-galactosidase activities were measured according to the protocol provided by the manufacturer. The resulting luciferase activity was corrected based on the β-galactosidase activity in the same cell extract. For the results shown in FIG. 7B, DDR1b-overexpressing THP-1 cells were transfected with 10 μg of the pGLM-ENH, or pGLM-MA1MA2 (Ueda et al., J. Bio. Chem. 272: 31092-9, 1997) and 5 μg of pSV-β-galactosidese plasmid DNA (Promega, Madison, Wis.) per 100-mm tissue culture plate using Effectene Transfection Reagent (Qiagen, Valencia, Calif.) according to the manufacture's protocol. […] Cells were collected and lysed using the Reporter Lysis Buffer (Promega, Madison, Wis.), and luciferase activity and β-galactosidase activities were measured according to the protocol provided by the manufacturer. […]
Mock-transduced or DDR1b-overexpressing THP-1 cells were transfected with 10 μg of the NF-κB-Luc plasmid, pGL-ENH, or pGL-MA1MA2 and 5 μg of pSV-β-galactosidase plasmid DNA (Promega, Madison, Wis.) per 100-mm tissue culture plate using Effectene Transfection Reagent (Qiagen, Valencia, Calif.) according to the manufacture's protocol. […] Luciferase activity and β-galactosidase activities were measured according to the protocol provided by the manufacturer. […]

NF-κB [2] = assay: Nuclear translocation of NF-κB by EMSA; conditions: DDR1b-overexpressing cells on collagen-coated plates
Experimental: Nuclear translocation of NF-κB was examined by EMSA. Nuclear extracts were prepared by a method previously reported (Ueda et al., J. Biol. Chem. 272:31092, 1997), and aliquots were frozen at −80° C. For EMSA, end-labeled ^32P-oligonucleotide probes corresponding to the NF-KB binding site of the Ig κ-chain (5′-[…]-3′) (SEQ ID NO: 15) or MCP-1 (A2 site; 5′-[…]-3′) (SEQ ID NO: 16) gene were used. Each probe was incubated with 5 μg of nuclear extracts in 20 μl of binding cocktail (50 mM Tris-HCl, pH 7.4, 25 MM MgCl2, 0.5 mM DTT, 50% glycerol) at 4° C. for 15 minutes. The DNA-protein complexes were resolved on a 5% polyacrylanide gel. The dried gels were exposed to X-ray films.

PMN = assay: MCP-1 release by PMN (neutrophils), ELISA
Experimental: Human PMN and peripheral blood mononuclear cells (PBMC) were obtained from heparinized blood from human donors (10 units of heparin per ml of blood). One volume of 5% dextran (T-500 Pharmacia, Piscataway, N.J.) in phosphate buffered saline (PBS) was added to three volumes of blood in 50 ml polypropylene tubes. After a 40 minute incubation at room temperature, the leukocyte-rich plasma layer was removed and overlaid onto Lymphoprep in 50 ml tubes and the tubes were centrifuged at 800×g for 20 minutes at room temperature. PMN were separated from erythrocytes by lysis in 0.2% NaCl, washed in complete medium three times at 4° C. and resuspended in complete medium. PBMC contained in the PMN preparations obtained by this method were less than 0.5% by morphologic examination. Cell viability was higher than 98% by trypan blue staining.
A panel of cytokines was previously tested for their ability to induce MCP-1 production in PMN and it was reported that TNF-α and IFN-γ could cooperate to induce a high level of MCP-1 production (Yamashiro et al., J. Leukoc. Biol. 69:698, 2001). […] The majority of MCP-1 was released between 24 hours and 48 hours, showing a delayed kinetics of MCP-1 release. […] The effect of IFN-γ was dose-dependent.
To confirm that activation of DDR1 was responsible for the increased release of MCP-1 by PMN treated with IFN-γ and collagen, 513 anti-DDR1 Ab was used instead of collagen. The concentrations of MCP-1 were measured in the Lymphokine Testing Laboratory, Clinical Services Program, SAIC-Frederick (Frederick, Md.) with an ELISA kit (R&D Systems) specific for human MCP-1.

Molecule	level of DDR1 mRNA expression (DDR1 mRNA)	level of DDR1 expression (DDR1)	level of DDR1 protein expression (DDR1 protein; PBMC, TNF-α 5 ng/ml or GM-CSF 10 ng/ml, 36 hours)	DDR1 protein expression (DDR1 protein; monocytes)	collagen-induced up-regulation of IL-8 release (THP-1 cells)	collagen-induced up-regulation of MCP-1 release (THP-1 cells)	collagen-induced up-regulation of MIP-1α release (THP-1 cells)	increase in luciferase activity induced by PMA plus collagen (NF-κB [1])	increased NF-κB/DNA binding (NF-κB [2])	MCP-1 production (PMN; PMN on collagen-coated plates with IFN-γ)	MCP-1 release (PMN; PMN, IFN-γ alone, uncoated plates)	dose dependence of effect on MCP-1 release (PMN; PMN, collagen-coated plates)
GM-CSF: human recombinant granulocyte macrophage-colony stimulating factor	further augmented	slightly increased	increased	increased	–	–	–	–	–	–	–	–
O=C(/C=C/c1ccc(O)c(O)c1)OCCc1ccccc1 [CAPE]	–	–	–	–	inhibited	inhibited	inhibited	completely inhibited	completely abolished	–	–	–
IFN-γ: human recombinant interferon-γ (protein, UniProt P01579 24-161, looked up) Interferon gamma: QDPYVKEAENLKKYFNAGHSDVADNGTLFLGILKNWKEESDRKIMQSQIVSFYFKLFKNFKDDQSIQKSVETIKEDMNVKFFNSNKKKRDDFEKLTNYSVTDLNVQRKAIHELIQVMAELSPAAKTGKRKRSQMLFRG	partially inhibited	markedly increased	–	–	–	–	–	–	–	potent synergistic effect	no significant MCP-1 release	dose-dependent

From patent US7855076B2, “Use of discoidin domain receptor 1 (DDR1) and agents that affect the DDR1/collagen pathway” (The United States of America as represented by the …, priority 2002, dated 2010)
